Here are results for one compound from US20070191493A1, “Use of n-alkanols as activators of the cftr channel” (priority 2003, published 2007).

Molecules are shown by their SMILES.

For test [1], the target named is T1, ΔF508 mutated CFTR channel (Homo sapiens, UniProt P13569, DEL508-508).
T1 construct: epithelial cells extracted from respiratory airways of patients suffering from cystic fibrosis (homozygous ΔF508); endogenous in cells; host or cells: JME/CF15 human airway epithelial cells (homozygous ΔF508)
Briefly: iodide efflux in JME/CF15 human bronchial epithelial cells from cystic fibrosis patients. In kind it is cell-based. Particulars: JME/CF15 cells. The protocol: The CFTR studies are also carried out on Calu-3 cells (ATCC No. HTB-55), which are human pulmonary epithelial cells endogenously expressing the CFTR channel. These cells are cultured under the same culture conditions as the CHO cells. The study of the mutated CFTR channel is carried out on JME/CF15 cells, which are epithelial cells extracted from respiratory airways of patients suffering from cystic fibrosis (homozygous ΔF508) (Jefferson et al., 1990). These cells therefore express the ΔF508 mutated CFTR channel. These cells are cultured under the same conditions as above, but the culture medium is supplemented with a hormone mixture containing: adenine (180 μM), insulin (5 μg/ml), transferrin (5 μg/ml), hydrocortisone (1.1 μM), triiodothyronine (2 nM), epinephrine (5.5 μM), epidermal growth factor (1.64 nM).
This technique makes it possible to follow the kinetics of exit of the ^125I radioactive iodide. The cells are cultured in 24-well plates with a dilution to 1/10 after passage. On the fourth day of culture, the drugs to be tested are dissolved in solution according to the desired concentration, at 37° C., in medium B, at pH 7.4, containing, in mM: 137 NaCl, 5.36 KCl, 0.8 mM MgCl2, 1.8 mM CaCl2, 5.5 glucose and 10 HEPES-NaOH. The wells are washed 4 times with 500 μl of medium B. The solution is subsequently replaced with 500 μl of loading solution containing 1 μM KI and 0.5 μCi of ^125INa/ml for 30 min. The kinetics of exit of ^125I are determined after having eliminated the loading solution and washed the wells 4 times with 500 μl of medium B. For the ^125I exit kinetics, 500 μl of medium B containing or not containing the molecules to be tested are incubated for 30 sec in the wells and recovered in a hemolysis tube, so as to be replaced with 500 μl of medium B containing or not containing the molecules to be tested. The operation is repeated every 30 s for 2 to 6 min. At the end of the efflux, the intracellular ions are extracted by adding 1 ml of trichloroacetic acid (7.5%) to the cell layer. All the samples are counted in a gamma counter (Kontron). The precipitated proteins are solubilized in 0.1N NaOH and quantified using a calorimetric test.
The tracer contained in the cell layer at the beginning of the efflux is calculated as the sum of the samples and of the extracts counted. The efflux curves are constructed by expressing the percentage of the content remaining in the cell layer (I %) with respect to time. The stimulated or nonstimulated efflux rate constants (k, min^−1) are determined by smoothing the efflux curves to a monoexponential function I %=100*exp(−kt) using a linear regression of the neperian logarithm of the data, k is used to calculate the iodide released into the medium with respect to time. The hypothesis is made that, in the presence of a stimulator, the efflux is the sum of two iodide effluxes occurring in parallel: a basal efflux and a stimulated efflux characterized, respectively, by the constants kb and ks. The total net efflux is then described by the equation It^%=100*(1−exp(−ktt)) where kt is the sum of kb and ks. Finally, ks calculated as kt−kb is used to establish a dose-response relationship for antagonists. The data is expressed as means ±SD, and the t-test is used to determine the significances. […] Y begins at the basal level and progresses to the plateau (Ymax), X is the concentration and the half-effect values (EC are calculated using GraphPad Prism v3.0 (GraphPad software)).

In test [2] the target is CFTR channel (Homo sapiens, UniProt P13569). Briefly: whole-cell patch-clamp in CHO-BQ1 cells, reversibility after washing. In kind it is cell-based. Also on record: expressed in transfected cells; host or cells: CHO-BQ1 cells. The conditions noted are these: octan-1-ol 1 mM, washing 15 min with physiological saline. The protocol: More specifically, culture dishes (cell support) are placed in an experimentation cell (volume 1 ml) on the platform of an inverted microscope (Nikon) equipped with phase-contrast lighting. The whole-cell configuration is used for recording the cell currents (Hamill et al., 1981). The experiments are carried out at ambient temperature (20-22° C.). The currents are amplified with an Axopatch 200B amplifier (Axon Instrument Ltd) having a 2-5 kHz low-pass filter (Bessel 6-pole filter), and recorded on the hard disk of a PC after digitization at 10-25 kHz. The pipettes are produced from glass tubes 1 mm in diameter (Clark Electromedical Instrument) in four steps with a horizontal drawing device (Bruwn Flaming 97, CA).
The pipettes, filled with an intracellular solution containing, in mM: 60 KCl; 80 NMDG ([…]); 10 HEPES; 5 EGTA; 1 CaCl2; 4 MgATP; 0.2 Na3GTP; pH 7.4, titrated with KOH), having a resistance of 5 MΩ. The potentials are expressed as the difference between the potential of the patch electrode and that of the bath. In the whole-cell configuration, they represent the membrane potential of the cell. […] The current-voltage relationships in the stationary state are determined using slow voltage ramps (20 mV/.s) under an imposed voltage condition. […]
Background: In patch-clamp work, channel activity is measured electrically.

Test [3] relates to CHO cells. Kind of test: ATP-induced calcium response (cellular uncoupling) in CHO cells. The conditions noted are these: α-GA 10 to 100 μM, octan-1-ol 1 mM. In kind it is cell-based, Chinese hamster. The procedure:
The Ca^2+ measurements are carried out in the presence of fura-2 (impermeant fluorescent probe) which binds […]. The cells are incubated in serum-free DMEM/F12 culture medium in the presence of the permeant form of fura-2 (fura-2/AM, 2.5 μM) for 1 h at 37° C. The cells, placed on the platform of an epifluorescent microscope (Olympus) (20× objective), are perfused with the solutions to be tested (e.g. ATP, octanol). They are sequentially illuminated at 340 nm and 380 nm and the fluorescence emitted (F) is measured at 510 nm. It is detected via a 12-bit CCD camera (Sony) connected to a data processing computer unit (TILL Photonics). The intracellular Ca^2+ concentration [Ca^2+]i is calculated using the Grynckiewicz equation (Grynckiewicz et al., 1985): [Ca^2+]i=Kdi *(R−Rmin/Rmax−R), based on the ratiometric analysis R (340/380 nm) of the fluorescence (TILL Vision); Rmax and Rmin denote the ratio of fluorescence measured in the presence or in the absence of Ca^2+.

T1 sequence (P13569 with tags, fused parts or gaps DEL508-508): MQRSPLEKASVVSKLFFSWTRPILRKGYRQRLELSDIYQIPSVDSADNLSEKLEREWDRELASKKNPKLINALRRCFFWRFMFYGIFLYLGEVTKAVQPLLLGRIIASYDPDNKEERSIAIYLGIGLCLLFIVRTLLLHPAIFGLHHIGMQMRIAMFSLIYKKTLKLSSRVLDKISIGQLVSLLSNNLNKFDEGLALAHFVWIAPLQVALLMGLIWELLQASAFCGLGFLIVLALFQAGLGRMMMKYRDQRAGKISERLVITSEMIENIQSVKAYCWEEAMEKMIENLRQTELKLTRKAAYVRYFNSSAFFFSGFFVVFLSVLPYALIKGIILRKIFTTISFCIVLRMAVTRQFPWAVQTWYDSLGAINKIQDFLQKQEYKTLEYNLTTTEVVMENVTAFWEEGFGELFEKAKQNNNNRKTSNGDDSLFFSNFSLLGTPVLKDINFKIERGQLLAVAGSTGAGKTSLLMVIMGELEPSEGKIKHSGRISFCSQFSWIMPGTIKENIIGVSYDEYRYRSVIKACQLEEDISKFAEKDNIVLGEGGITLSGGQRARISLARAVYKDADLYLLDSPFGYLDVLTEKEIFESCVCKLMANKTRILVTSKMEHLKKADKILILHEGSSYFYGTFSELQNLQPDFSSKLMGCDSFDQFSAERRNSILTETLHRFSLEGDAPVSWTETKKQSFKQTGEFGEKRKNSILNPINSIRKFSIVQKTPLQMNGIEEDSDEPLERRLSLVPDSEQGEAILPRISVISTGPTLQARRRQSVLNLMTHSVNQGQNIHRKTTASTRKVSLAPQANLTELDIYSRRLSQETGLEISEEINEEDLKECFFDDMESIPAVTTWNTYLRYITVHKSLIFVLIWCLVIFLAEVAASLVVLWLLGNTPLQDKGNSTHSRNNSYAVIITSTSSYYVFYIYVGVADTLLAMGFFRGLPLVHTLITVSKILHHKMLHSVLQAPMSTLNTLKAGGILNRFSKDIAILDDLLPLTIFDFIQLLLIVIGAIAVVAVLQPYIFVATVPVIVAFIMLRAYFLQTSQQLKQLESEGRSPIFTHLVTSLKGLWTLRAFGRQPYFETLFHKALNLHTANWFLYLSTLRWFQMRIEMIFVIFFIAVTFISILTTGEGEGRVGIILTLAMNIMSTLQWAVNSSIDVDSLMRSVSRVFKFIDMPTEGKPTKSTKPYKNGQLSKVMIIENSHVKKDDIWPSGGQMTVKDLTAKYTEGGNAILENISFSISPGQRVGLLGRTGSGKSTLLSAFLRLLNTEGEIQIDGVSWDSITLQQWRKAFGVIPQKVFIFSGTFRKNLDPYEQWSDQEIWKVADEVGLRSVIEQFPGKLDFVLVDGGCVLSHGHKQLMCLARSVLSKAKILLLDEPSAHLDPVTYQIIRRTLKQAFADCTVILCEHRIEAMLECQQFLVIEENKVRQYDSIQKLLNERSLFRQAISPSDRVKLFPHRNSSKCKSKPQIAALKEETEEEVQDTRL
Sequence of CFTR channel (P13569 whole entry): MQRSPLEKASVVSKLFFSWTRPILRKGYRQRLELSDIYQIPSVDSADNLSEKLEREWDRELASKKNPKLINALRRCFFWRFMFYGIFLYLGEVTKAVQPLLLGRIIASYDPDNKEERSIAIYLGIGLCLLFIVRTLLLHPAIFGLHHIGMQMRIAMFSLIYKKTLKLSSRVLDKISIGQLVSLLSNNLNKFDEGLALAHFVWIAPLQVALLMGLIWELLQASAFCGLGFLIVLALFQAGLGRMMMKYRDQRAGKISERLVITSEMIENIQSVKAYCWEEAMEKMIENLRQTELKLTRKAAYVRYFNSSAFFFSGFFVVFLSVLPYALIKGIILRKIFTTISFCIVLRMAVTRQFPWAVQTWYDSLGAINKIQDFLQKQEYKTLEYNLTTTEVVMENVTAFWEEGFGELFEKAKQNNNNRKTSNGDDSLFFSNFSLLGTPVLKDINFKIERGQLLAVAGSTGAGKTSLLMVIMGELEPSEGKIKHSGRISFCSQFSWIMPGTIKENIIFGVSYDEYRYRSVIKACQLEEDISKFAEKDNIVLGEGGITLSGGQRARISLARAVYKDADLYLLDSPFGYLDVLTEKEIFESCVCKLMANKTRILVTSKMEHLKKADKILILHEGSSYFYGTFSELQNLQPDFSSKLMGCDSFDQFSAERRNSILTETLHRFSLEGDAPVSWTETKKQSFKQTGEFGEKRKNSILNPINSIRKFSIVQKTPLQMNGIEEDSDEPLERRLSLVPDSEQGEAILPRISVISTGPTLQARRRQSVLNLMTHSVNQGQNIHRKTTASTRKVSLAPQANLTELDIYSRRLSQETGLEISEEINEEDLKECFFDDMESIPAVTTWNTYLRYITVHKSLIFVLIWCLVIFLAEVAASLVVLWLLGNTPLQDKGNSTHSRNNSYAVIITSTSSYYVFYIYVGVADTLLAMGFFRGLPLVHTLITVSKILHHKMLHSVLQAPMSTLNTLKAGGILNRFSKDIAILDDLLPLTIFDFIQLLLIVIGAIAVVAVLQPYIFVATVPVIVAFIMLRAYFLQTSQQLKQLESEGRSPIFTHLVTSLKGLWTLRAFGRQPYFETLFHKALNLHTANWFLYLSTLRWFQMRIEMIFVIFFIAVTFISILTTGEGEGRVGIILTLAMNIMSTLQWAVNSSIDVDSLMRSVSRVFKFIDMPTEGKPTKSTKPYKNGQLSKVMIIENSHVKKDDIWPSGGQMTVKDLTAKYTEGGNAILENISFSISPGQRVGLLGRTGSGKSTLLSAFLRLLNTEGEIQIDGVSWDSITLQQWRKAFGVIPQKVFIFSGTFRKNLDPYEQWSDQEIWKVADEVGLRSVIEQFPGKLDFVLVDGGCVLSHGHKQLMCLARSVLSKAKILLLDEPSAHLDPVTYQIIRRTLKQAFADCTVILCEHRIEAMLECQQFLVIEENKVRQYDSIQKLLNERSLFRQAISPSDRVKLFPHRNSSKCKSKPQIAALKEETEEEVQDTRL

Take `CCCCCCCCO` [octan-1-ol]: the “effect on the basal level when the mutated channel is not present at the plasma membrane” value in test [1] is on record as “has no effect on the basal level”. In addition, the “activation of ΔF508 mutated CFTR channel, in words” value in test [1] (1 mM) is on record as “specifically activates the ΔF508 mutated CFTR channel”. Besides, in test [1] (octan-1-ol 1 mM), the “activation of mutated CFTR-ΔF508 channel as share of maximum activity (10 μM FSK+30 μM genistein = 100%)” value was “approximately 50%”. Moreover, in test [2], the “reversibility of the activating effect on CFTR” value is “reversible”. For the same compound, the “cellular uncoupling shown by ATP-induced calcium response” value in test [3] was “clearly uncouples the cells”.
